Assay results: US20100179225A1, “POI Prevention” (CYTOKINE PHARMASCIENCES, INC., priority 2008, published 2010)

Key:
[1] = test system: Lewis rats; experiment: Intestinal injury (Park score) after syngeneic orthotopic small intestinal transplantation; format: in vivo; conditions: 1 mg/kg i.v. to donor and recipient
Description: Syngeneic orthotopic small intestinal transplantation was performed in Lewis rats as previously described (Schwarz N T, Nakao A, Nalesnik M A, Kalff J C, Murase N, Bauer A J. Protective effects of ex vivo graft radiation and tacrolimus on syngeneic transplanted rat small bowel motility. Surgery 2002; 131: 413-423). […] Then the graft vascular bed was perfused with chilled UW solution (University of Wisconcin) and the intestinal lumen was irrigated with 50 ml cold 0.9% NaCl solution containing […]. neomycin sulfate (Uro Nebacetin N, Nycomed, Germany). The graft was stored in cold UW solution during the preparation of the recipient. An end-to-side anastomosis between the graft aorta and the recipient infra-renal aorta, and between the graft vein and recipient vena cava, was performed. Approximately 80% of the recipient intestine was removed and enteric continuity was restored by proximal and distal end-to-end intestinal anastomoses. […]
Histological changes and intestinal injury were graded by determination of the Park score 3 and 18 hours after reperfusion. […] Probes were analyzed in a blinded way.
Syngeneic orthotopic small intestinal transplantation was performed as described above and histological changes and intestinal injury were graded by determination of the Park score 3 and 18 hours after reperfusion. […] Probes were analyzed in a blinded way.

[2] = test system: swine; experiment: Gastrointestinal transit in swine (radio-opaque globes, geometric center) after IM; format: in vivo; conditions: 24 h after operation, mean+/−SEM
Description: Swine were fed with CPSI 2364 or placebo 14 hours and three hours before operation. In the iv group, CPSI 2364 was applied once two hours before operation. All animals were fed (non fasted). After premedication animals were intubated and a central venous catheter was applied. A laparotomy was performed under sterile conditions. The whole small bowel was eventrated and manipulated twice from duodenum to cecum between two fingers. In the sham group, a laparotomy was performed without intestinal manipulation. At the end of the operation, 15 radio-opaque globes were placed in the proximal small bowel. The abdominal wall was closed and swine were brought to an intensive care unit.
Swine underwent intestinal manipulation (IM) or laparotomy without IM (Sham). CPSI-2364 (1 mg/kg) or placebo (mannitol 2.5%) were administered orally (p.o.) twice at 14 hours and 3 hours before operation or intravenously (i.v.) once at 2 hours before operation. At the end of the operation, 15 radio-opaque globes were placed in the proximal small bowel. Twenty-four hours after operation animals were sacrificed and the radio-opaque globes were detected by x-rays radiography and the distribution along the gastrointestinal tract was calculated as the geometric center **p<0.001 vs. indicated probes by 1-way ANOVA followed by Bonferroni's post test. […]

Compound: C/C(=N\N=C(N)N)c1cc(NC(=O)CCCCCCCCC(=O)Nc2cc(/C(C)=N/N=C(N)N)cc(/C(C)=N/N=C(N)N)c2)cc(/C(C)=N/N=C(N)N)c1.CS(=O)(=O)O.CS(=O)(=O)O.CS(=O)(=O)O.CS(=O)(=O)O [CPSI-2364]
- Park's score ([1]; 3 hours after reperfusion): 1.83
- Park's score ([1]; 18 hours after reperfusion): 1.5
- gastrointestinal transit, geometric center (GC) ([2]; 1 mg/kg i.v. once at 2 hours before operation): 14.01+/−0.44
- gastrointestinal transit, geometric center (GC) ([2]; 1 mg/kg p.o. twice at 14 hours and 3 hours before operation): 13.00+/−0.27
